Test results: patent US20110190235A1, “BORON-CONTAINING SMALL MOLECULES AS ANTIPROTOZOAL AGENTS” (Anacor Pharmaceuticals, Inc., priority 2009, published 2011)
In brackets after ≈: the same amount, converted by molar mass. Read-outs that look alike come from different tables or passages of the source.

Key:
[1] = test system: bloodstream-form trypanosome T. brucei brucei 427 strain; assay: Trypanosoma brucei brucei high-throughput in vitro drug sensitivity assay (resazurin); type: cell-based; conditions: for Selectivity Index (L929 IC50 / T. b. brucei IC50): T. b. brucei vs L929; for IC50: Trypanosoma brucei
[2] = Kinetic solubility by nephelometric (light scattering) method; type: physicochemical; conditions: phosphate buffered saline, aqueous buffer, kinetic from dmso stock, PBS pH 7.4
Procedure: The kinetic solubilities of compounds were estimated using a nephelometric (light scattering) method. Briefly, compounds were serially diluted in DMSO, followed by dilution in PBS pH 7.4. After incubation, the amount of light scattered by a compound at each concentration was measured. […] At concentrations above the solubility limit, the compound precipitates and the precipitant in the well scatters the light, generating a signal. Higher levels of precipitant in a well scatter more light and produce a stronger signal.
A stock solution of compound (25 mM in DMSO) was prepared, and was serially diluted in DMSO in two-fold increments in a row of a 96 well plate to a lowest concentration of 24 μM. A duplicate plate was prepared by transfer of half of the volume of each well to a new plate. Each well containing DMSO solution of the test compound was then diluted further (1:100) with phosphate buffered saline (pH 7.4) to provide aqueous solutions of compound at the following final concentrations: 250, 125, 62.5, 31.3, 15.6, 7.8, 3.9, 2.0, 1.0, 0.5 and 0.2 μM. All liquid handling stages were performed on a Beckman Coulter Biomek NX Laboratory Automation Workstation. Each compound was diluted and tested in duplicate, providing four separate wells at each test concentration.
The test solutions of compound were incubated at room temperature for 90 minutes and then analyzed using a Thermoskan Ascent nephelometric plate reader. The nephelometer protocol included two steps: first, the plate was shaken for 60 seconds at 1200 rpm, then each well of the plate was read in succession with an 800 ms settling delay between measurements. The total measurement time for a single plate was less than 4 minutes.
The four values (in nephelometric units) obtained for each compound at each concentration were averaged and plotted on a log scale versus concentration.

[3] = L929 cytotoxicity evaluation (resazurin); type: cell-based; conditions: mouse, L929 mouse fibroblast cells; 72 hrs incubation; read-out: Cytotox L-929 IC50
How it was run: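 Mouse L929 fibroblasts (1×10^4/mL seeding, attached overnight) were treated 72 h at 37 °C, 5% CO2 with serially diluted compounds in DMSO in D-MEM/10% FBS. Viability read by resazurin fluorescence after 3–4 h (ex 544/em 590 nm); IC50 from sigmoidal fits of single data points.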

[4] = 72 hrs incubation, read-out: T. b. brucei IC50
[5] = 72 hrs incubation, read-out: T.b. brucei IC50
[6] = 72 h, read-out: T.b. brucei IC50 (ug/mL)

SMILES	Selectivity Index (L929 IC50 / T. b. brucei IC50) [1]	IC50 [1, 4] [nM]	IC50 [1, 5] [µg/mL]	solubility at 90 min [2] [µM]	IC50 at 72 h [3] [µg/mL]	IC50 [1, 6] [µg/mL]	IC50 ([1]; 72 h, read-out: T. b. brucei IC50 (nM)) [nM]
CC1OB(O)c2cc(NC(=O)c3ccccc3F)ccc21 (stereo not shown) [compound 8, 2-Fluoro-N-(1-hydroxy-3-methyl-1,3-dihydro-benzo[c][1,2]oxaborol-6-yl)-benzamide]	84	246	0.07	50 (≈ 14.3 µg/mL)	5.86 (≈ 20.6 µM)	–	–
CC1OB(O)c2cc(NC(=O)c3ccc(Cl)cc3)ccc21 (stereo not shown) [compound 9, 4-Chloro-N-(1-hydroxy-3-methyl-1,3-dihydro-benzo[c][1,2]oxaborol-6-yl)-benzamide]	>208	159	0.048	25 (≈ 7.54 µg/mL)	> 10	–	–
CC1OB(O)c2cc(NC(=O)c3ccc(F)cc3F)ccc21 (stereo not shown) [compound 12, 2,4-Difluoro-N-(1-hydroxy-3-methyl-1,3-dihydro-benzo[c][1,2]oxaborol-6-yl)-benzamide]	>123	267	0.081	100 (≈ 30.3 µg/mL)	> 10	–	–
CC1OB(O)c2cc(NC(=O)c3ccc(F)cc3Cl)ccc21 (stereo not shown) [compound 13, 2-Chloro-4-fluoro-N-(1-hydroxy-3-methyl-1,3-dihydro-benzo[c][1,2]oxaborol-6-yl)-benzamide]	47	135	0.043	> 200	2 (≈ 6.26 µM)	–	–
CC1OB(O)c2cc(NC(=O)c3ccccc3Br)ccc21 (stereo not shown) [compound 14, 2-Bromo-N-(1-hydroxy-3-methyl-1,3-dihydro-benzo[c][1,2]oxaborol-6-yl)-benzamide]	39	124	0.043	100 (≈ 34.6 µg/mL)	1.67 (≈ 4.83 µM)	–	–
O=C(Nc1ccc2c(c1)B(O)OC2C1CCCC1)c1ccccc1C(F)(F)F (stereo not shown) [compound 17, N-(3-Cyclopentyl-1-hydroxy-1,3-dihydro-benzo[c][1,2]oxaborol-6-yl)-2-trifluoromethyl-benzamide]	>15	1680	0.655	25 (≈ 9.73 µg/mL)	> 10	–	–
O=C(Nc1ccc2c(c1)B(O)OC2C1CCCC1)c1ccc(F)cc1C(F)(F)F (stereo not shown) [compound 19, N-(3-Cyclopentyl-1-hydroxy-1,3-dihydro-benzo[c][1,2]oxaborol-6-yl)-4-fluoro-2-trifluoromethyl-benzamide]	>3	7810	3.18	100 (≈ 40.7 µg/mL)	> 10	–	–
CC(C)CC1OB(O)c2cc(NC(=O)c3ccc(F)cc3C(F)(F)F)ccc21 (stereo not shown) [compound 23, 4-Fluoro-N-(1-hydroxy-3-isobutyl-1,3-dihydro-benzo[c][1,2]oxaborol-6-yl)-2-trifluoromethyl-benzamide]	>4	6100	2.41	25 (≈ 9.88 µg/mL)	> 10	–	–
CC1(C)OB(O)c2cc(NC(=O)c3ccccc3)ccc21 [compound 26, N-(1-Hydroxy-3,3-dimethyl-1,3-dihydro-benzo[c][1,2]oxaborol-6-yl)-benzamide]	–	–	> 5	200 (≈ 56.2 µg/mL)	> 10	–	–
CC(C)(C)c1ccc(C(=O)Nc2ccc3c(c2)B(O)OC3(C)C)cc1 [compound 33, 4-tert-Butyl-N-(1-hydroxy-3,3-dimethyl-1,3-dihydro-benzo[c][1,2]oxaborol-6-yl)-benzamide]	–	–	0.229	6 (≈ 2.02 µg/mL)	> 10	–	–
CC1(C)OB(O)c2cc(NC(=O)c3ccccc3C(F)(F)F)ccc21 [compound 34, N-(1-Hydroxy-3,3-dimethyl-1,3-dihydro-benzo[c][1,2]oxaborol-6-yl)-2-trifluoromethyl-benzamide]	>94	304	0.106	50 (≈ 17.5 µg/mL)	> 10	–	–
CC1(C)OB(O)c2cc(NC(=O)c3ccccc3Cl)ccc21 [compound 38, 2-Chloro-N-(1-hydroxy-3,3-dimethyl-1,3-dihydro-benzo[c][1,2]oxaborol-6-yl)-benzamide]	>60	532	0.168	13 (≈ 4.1 µg/mL)	> 10	–	–
CC1(C)OB(O)c2cc(NC(=O)c3ccccc3Br)ccc21 [compound 39, 2-Bromo-N-(1-hydroxy-3,3-dimethyl-1,3-dihydro-benzo[c][1,2]oxaborol-6-yl)-benzamide]	>44	631	0.227	50 (≈ 18 µg/mL)	> 10	–	–
CC1(C)OB(O)c2cc(NC(=O)c3ccc(F)cc3)ccc21 [compound 44, 4-Fluoro-N-(1-hydroxy-3,3-dimethyl-1,3-dihydro-benzo[c][1,2]oxaborol-6-yl)-benzamide]	–	> 16700	> 5	100 (≈ 29.9 µg/mL)	> 10	–	–
CC1(C)OB(O)c2cc(NC(=O)c3ccc(Cl)cc3Cl)ccc21 [compound 65, 2,4-Dichloro-N-(1-hydroxy-3,3-dimethyl-1,3-dihydro-benzo[c][1,2]oxaborol-6-yl)-benzamide]	–	–	0.278	50 (≈ 17.5 µg/mL)	> 10	–	–
CC1(C)OB(O)c2cc(NC(=O)c3ccc(Br)cc3Cl)ccc21 [compound 76, 4-Bromo-2-chloro-N-(1-hydroxy-3,3-dimethyl-1,3-dihydro-benzo[c][1,2]oxaborol-6-yl)-benzamide]	–	–	0.185	25 (≈ 9.86 µg/mL)	> 10	–	–
CC(C)c1ccc(C(=O)Nc2ccc3c(c2)B(O)OC3(C)C)c(Cl)c1 [compound 101, 2-Chloro-N-(1-hydroxy-3,3-dimethyl-1,3-dihydro-benzo[c][1,2]oxaborol-6-yl)-4-isopropyl-benzamide]	–	–	–	25 (≈ 8.94 µg/mL)	8.43 (≈ 23.6 µM)	0.05	–
Cc1ccc(F)c(C(=O)Nc2ccc3c(c2)B(O)OC3(C)C)c1Cl [compound 107, 2-Chloro-6-fluoro-N-(1-hydroxy-3,3-dimethyl-1,3-dihydro-benzo[c][1,2]oxaborol-6-yl)-3-methyl-benzamide]	–	–	0.566	4.3 (≈ 1.49 µg/mL)	> 10	–	–
CC1(C)OB(O)c2cc(NC(=O)c3ccc4ccccc4c3)ccc21 [compound 112, Naphthalene-2-carboxylic acid (1-hydroxy-3,3-dimethyl-1,3-dihydrobenzo[c][1,2]oxaborol-6-yl)-amide]	–	–	0.278	50 (≈ 16.6 µg/mL)	> 10	–	–
CC1(C)OB(O)c2cc(NC(=O)c3ccccn3)ccc21 [compound 114, Pyridine-2-carboxylic acid (1-hydroxy-3,3-dimethyl-1,3-dihydro-benzo[c][1,2]oxaborol-6-yl)-amide]	–	–	> 5	100 (≈ 28.2 µg/mL)	> 10	–	–
O=C(Nc1ccc2c(c1)B(O)OC21CCC1)c1ccc(F)cc1C(F)(F)F [compound 134]	>30	–	–	100 (≈ 37.9 µg/mL)	> 10	0.338	892
